# Experimental data: BindingDB's records for patent US20250313563 (The Broad Institute, 2025)
# Several values for one entry are separate records, joined by “and”; a condition that tells them apart may be missing. Equal values may be shown once.
# Assays:
# [1] = target: Glycogen synthase kinase-3 beta (Homo sapiens, UniProt P49841); assay: TR-FRET Assay
# Outline: (§1)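 TR-FRET readout: streptavidin-d2 (40 nM in added detection mix) plus Tb-anti-pSer641 Ab (2 nM in mix). Steps were 30 min compound preincubation, kinase reaction, then EDTA stop.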
# [2] = target: Glycogen synthase kinase-3 alpha (Homo sapiens, UniProt P49840); assay: TR-FRET Assay
# Outline: as §1
# Sequence of Glycogen synthase kinase-3 alpha (P49840 whole entry): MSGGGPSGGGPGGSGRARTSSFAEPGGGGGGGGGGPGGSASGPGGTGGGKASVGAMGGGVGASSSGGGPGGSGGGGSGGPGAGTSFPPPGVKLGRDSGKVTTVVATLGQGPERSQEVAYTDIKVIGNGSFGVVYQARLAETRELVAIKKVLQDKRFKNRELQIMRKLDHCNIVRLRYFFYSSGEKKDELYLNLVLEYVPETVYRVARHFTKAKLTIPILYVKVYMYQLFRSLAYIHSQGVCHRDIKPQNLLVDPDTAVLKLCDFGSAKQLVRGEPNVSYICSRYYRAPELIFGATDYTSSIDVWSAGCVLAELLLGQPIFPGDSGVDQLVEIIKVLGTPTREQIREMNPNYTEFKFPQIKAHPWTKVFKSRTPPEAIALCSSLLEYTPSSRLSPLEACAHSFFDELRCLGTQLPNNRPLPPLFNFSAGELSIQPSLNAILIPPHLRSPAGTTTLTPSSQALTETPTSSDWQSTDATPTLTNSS
# Sequence of Glycogen synthase kinase-3 beta (P49841 whole entry): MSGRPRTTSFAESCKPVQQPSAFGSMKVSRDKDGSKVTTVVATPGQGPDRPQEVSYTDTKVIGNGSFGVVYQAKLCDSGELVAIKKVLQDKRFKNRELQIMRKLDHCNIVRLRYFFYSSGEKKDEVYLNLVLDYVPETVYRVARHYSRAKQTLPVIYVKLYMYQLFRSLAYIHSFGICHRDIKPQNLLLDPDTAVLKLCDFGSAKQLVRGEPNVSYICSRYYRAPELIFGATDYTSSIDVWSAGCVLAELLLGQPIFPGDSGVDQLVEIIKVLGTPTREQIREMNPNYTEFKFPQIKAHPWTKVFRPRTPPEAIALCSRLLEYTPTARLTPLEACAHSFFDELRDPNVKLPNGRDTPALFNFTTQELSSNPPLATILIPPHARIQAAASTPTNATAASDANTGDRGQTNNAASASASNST
Compound,IC50 [1],IC50 [2]
"CCC1(c2cccc(C(F)(F)F)c2)C2=CN=NC2NC2=C1C(=O)N(c1cncnc1)CC2 (configuration not stated) [US20250313563, Compound 948238]",100 to 1000 nM,< 100 nM
"CCC1(c2cccc(C(F)(F)F)c2)C2=C(N=NC2)NC2=C1C(=O)NC2 (configuration not stated) [US20250313563, Compound 913156]",> 5000 nM,100 to 1000 nM
"CC1(C)CC(=O)C2=C(C1)NC1=C(CN=N1)[C@]21CCN(S(=O)(=O)c2ccccc2)C1 [US20250313563, Compound 943485]",< 100 nM and 1000 to 5000 nM,< 100 nM and 100 to 1000 nM
"CC[C@]1(c2cccc(-c3c4c(cn3C)CCCC4)c2)C2=CN=NC2NC2=C1C(=O)NC(C)(C)C2 (some centres not stated) [US20250313563, Compound 948655]",100 to 1000 nM,< 100 nM
"CC[C@@]1(c2cccc(-c3cc(C)ncc3F)c2)C2=C(CC(C)(C)NC2=O)NC2N=NC(C)=C21 (some centres not stated) [US20250313563, Compound 949338]",< 100 nM,< 100 nM
"CC1(C)CC(=O)C2=C(NC3=C(CN=N3)C23CCN(S(=O)(=O)c2cccc(C(F)(F)F)c2)CC3)[C@H]1F [US20250313563, Compound 951713]",< 100 nM and 1000 to 5000 nM,< 100 nM and 100 to 1000 nM
"CC[C@@]1(c2cccc(-c3c4c(nn3C)CCCC4)c2)C2=CN=NC2NC2=C1C(=O)NC(C)(C)C2 (some centres not stated) [US20250313563, Compound 948652]",> 5000 nM,100 to 1000 nM
"CC[C@]1(c2cccc(-c3ccncc3C3CC3)c2)C2=CN=NC2NC2=C1C(=O)NC(C)(C)C2 (some centres not stated) [US20250313563, Compound 948642]",1000 to 5000 nM,100 to 1000 nM
"CC[C@@]1(c2ccccc2)C2=CN=NC2NC2=C1C(=O)[C@@H](C)C[C@@H]2C (some centres not stated) [US20250313563, Compound 865198]",1000 to 5000 nM,100 to 1000 nM
"CC1(C)CC(=O)C2=C(C1)NC1N=NC(Br)=C1[C@]21CCc2c(F)cccc21 (some centres not stated) [US20250313563, Compound 806939]",< 100 nM,< 100 nM
"CC1(C)CC(=O)C2=C(C1)NC1=C(CN=N1)C21CN(c2ccccc2)C1 [US20250313563, Compound 948298]",< 100 nM,< 100 nM
"CC1(C)CC(=O)C2=C(C1)NC1=C(CN=N1)C21CCN(S(=O)(=O)c2cccc(F)c2)CC1 [US20250313563, Compound 901466]",< 100 nM,< 100 nM
"CC[C@H]1CCN1c1cccc([C@@]2(CC)C3=CN=NC3NC3=C2C(=O)CC(C)(C)C3)c1 (some centres not stated) [US20250313563, Compound 911969]",100 to 1000 nM,< 100 nM
"CC1(C)CC(=O)C2=C(C1)NC1=C(CN=N1)[C@@]21CO[C@H](c2ccccc2)C1 [US20250313563, Compound 946072]",100 to 1000 nM,< 100 nM
"CC[C@]1(c2cccc(C)c2)C2=C(CC(C)(C)CC2=O)NC2N=NC(C(F)(F)F)=C21 (some centres not stated) [US20250313563, Compound 883872]",> 5000 nM,1000 to 5000 nM
"CC1(C)CC(=O)C2=C(C1)NC1=C(CN=N1)C21CCC(n2cnnc2)CC1 (configuration not stated) [US20250313563, Compound 943894]",100 to 1000 nM,< 100 nM
"CC[C@]1(c2cccc(C3=CNN4CC(F)=CC(F)=C34)c2)C2=CN=NC2NC2=C1C(=O)NC(C)(C)C2 (some centres not stated) [US20250313563, Compound 949390]",> 5000 nM,1000 to 5000 nM
"Cn1cc(S(=O)(=O)N2CC[C@@]3(C2)C2=C(N=NC2)NC2=C3C(=O)CC(C)(C)C2)cn1 [US20250313563, Compound 943483]",< 100 nM,< 100 nM
"CC1(C)CC(=O)C2=C(C1)NC1=C(CN=N1)C21CCN(S(=O)(=O)c2cccc(OC(F)F)c2)CC1 [US20250313563, Compound 947242]",< 100 nM and 100 to 1000 nM,< 100 nM
"Cc1cc(C)cc(C(=O)N2CC3(C2)C[C@]2(CO3)C3=C(N=NC3)NC3=C2C(=O)CC(C)(C)C3)c1 [US20250313563, Compound 948222]",1000 to 5000 nM,100 to 1000 nM
"CC[C@]1(c2cccc(C(C)C)c2)C2=C(CC(C)(C)NC2=O)NC2N=NC(C(F)(F)F)=C21 (some centres not stated) [US20250313563, Compound 950493]",100 to 1000 nM,100 to 1000 nM
